Series [1] concerns Cell membrane. Kind of series: Induction of membrane depolarization in Escherichia coli ATCC 25922 at 0.25 to 0.5 times MIC after 60 mins by DiOC23 dye based based flow cytometry. It is filed as subcellular.
Series [2] relates to Escherichia coli. Kind of series: Antibacterial activity against Escherichia coli BAA3051 assessed as inhibition of bacterial growth incubated for 90 mins by serial dilution assay. It is filed as functional.
Series [3] has as its system Cell membrane. Kind of series: Induction of inner membrane damage in Escherichia coli ATCC 25922 assessed disruption of membrane integrity at 0.5 to 256 ug/ml and measured after 90 mins by propidium iodide staining based flow cytometry. It is filed as subcellular. The conditions noted are these: dose 0.5-256 µg/ml.
Series [4] concerns Cell membrane. Kind of series: Induction of membrane depolarization in Salmonella enterica serovar typhimurium SL1344 at 0.5 times MIC after 60 mins by DiOC23 dye based based flow cytometry relative to control. The conditions noted are these: Salmonella enterica subsp. enterica serovar Typhimurium.
The subject of series [5] is Staphylococcus aureus. Kind of series: Antibacterial activity against Staphylococcus aureus ATCC 29213 assessed as inhibition of bacterial growth incubated for 90 mins by serial dilution assay. It counts as functional.
The subject of series [6] is Cell membrane. The series is described as follows: Induction of membrane depolarization in Enterococcus faecalis ATCC 29212 at 0.25 times MIC after 60 mins by DiOC23 dye based based flow cytometry. It counts as subcellular.
Series [7] relates to HEK293. Kind of series: Cytotoxicity against human HEK293 cells assessed as decrease in live cells upto 125 ug/ml incubated for 2 hrs by MTS assay. As to conditions: hek293, 2 h, dose < 125 µg/ml. It counts as toxicity, cell-based.
Series [8] has as its system Cell membrane. Kind of series: Induction of membrane depolarization in Salmonella enterica serovar typhimurium SL1344 at 0.25 to 0.5 times MIC after 60 mins by DiOC23 dye based based flow cytometry. It is filed as subcellular. As to conditions: Salmonella enterica subsp. enterica serovar Typhimurium.
Series [9] deals with Escherichia coli. Kind of series: Bactericidal activity against Escherichia coli ATCC 25922 incubated for 90 mins by serial dilution assay. It is filed as functional.
Series [10] relates to Staphylococcus aureus. Kind of series: Bactericidal activity against Staphylococcus aureus ATCC 29213 incubated for 90 mins by serial dilution assay. It is filed as functional.
Series [11] has as its system Staphylococcus aureus. The series is described as follows: Induction of morphological changes in Staphylococcus aureus ATCC 29213 at 0.5 to 2 times MIC incubated for 90 mins by Helium ion microscopy. It is filed as functional, organism-based.
For series [12], the system named is Cell membrane. The series is described as follows: Induction of membrane depolarization in Staphylococcus aureus ATCC 29213 at 0.25 times MIC after 60 mins by DiOC23 dye based based flow cytometry. It is filed as subcellular.
Series [13] relates to Enterococcus faecalis. The series is described as follows: Antibacterial activity against Enterococcus faecalis ATCC 29212 assessed as inhibition of bacterial growth incubated for 90 mins by serial dilution assay. It is filed as functional.
The test system of series [14] is Cell membrane. The series is described as follows: Induction of membrane depolarization in Enterococcus faecalis ATCC 29212 at 0.5 times MIC after 60 mins by DiOC23 dye based based flow cytometry relative to control.
Series [15] has as its system Cell membrane. The series is described as follows: Induction of outer membrane permeabilization in Escherichia coli BAA3051 assessed as increase in NPN fluorescence intensity incubated for 15 mins by NPN-dye based fluorescence analysis.
In series [16] the test system is Cell membrane. The series is described as follows: Induction of membrane depolarization in Escherichia coli ATCC 25922 at 0.5 times MIC after 60 mins by DiOC23 dye based based flow cytometry relative to control.
Series [17] concerns Salmonella typhimurium. Kind of series: Bactericidal activity against Salmonella enterica serovar typhimurium SL1344 incubated for 90 mins by serial dilution assay. It is filed as functional, Salmonella enterica subsp. enterica serovar Typhimurium.
For series [18], the system named is Cell membrane. The series is described as follows: Induction of membrane depolarization in Staphylococcus aureus ATCC 29213 at 0.5 times MIC after 60 mins by DiOC23 dye based based flow cytometry relative to control. It is filed as subcellular.
Series [19] concerns Staphylococcus aureus. Kind of series: Bactericidal activity against Methicillin resistant Staphylococcus aureus ATCC 33591 incubated for 90 mins by serial dilution assay. It is filed as functional.
The subject of series [20] is Cell membrane. Kind of series: Induction of outer membrane permeabilization in Salmonella enterica serovar typhimurium SL1344 assessed as increase in NPN fluorescence intensity incubated for 15 mins by NPN-dye based fluorescence analysis. It counts as subcellular. The conditions noted are these: Salmonella enterica subsp. enterica serovar Typhimurium.
The subject of series [21] is Cell membrane. Kind of series: Induction of outer membrane permeabilization in Escherichia coli ATCC 25922 assessed as increase in NPN fluorescence intensity incubated for 15 mins by NPN-dye based fluorescence analysis. It counts as subcellular.
The test system of series [22] is Salmonella typhimurium. The series is described as follows: Antibacterial activity against Salmonella enterica serovar typhimurium SL1344 assessed as inhibition of bacterial growth incubated for 90 mins by serial dilution assay. It is filed as functional, Salmonella enterica subsp. enterica serovar Typhimurium.
The test system of series [23] is Enterococcus faecalis. Kind of series: Bactericidal activity against Enterococcus faecalis ATCC 29212 incubated for 90 mins by serial dilution assay. It is filed as functional.
In series [24] the test system is Escherichia coli. Kind of series: Antibacterial activity against Escherichia coli ATCC 25922 assessed as inhibition of bacterial growth incubated for 90 mins by serial dilution assay. It counts as functional.
Series [25] has as its system HEK293. Kind of series: Cytotoxicity against human HEK293 cells assessed as decrease in live cells at 250 ug/ml incubated for 2 hrs by MTS assay. It counts as toxicity, cell-based. As to conditions: hek293, 2 h, dose 250 µg/ml.
The subject of series [26] is Escherichia coli. The series is described as follows: Bactericidal activity against Escherichia coli BAA3051 incubated for 90 mins by serial dilution assay. It counts as functional.
The subject of series [27] is Staphylococcus aureus. The series is described as follows: Antibacterial activity against Methicillin resistant Staphylococcus aureus ATCC 33591 assessed as inhibition of bacterial growth incubated for 90 mins by serial dilution assay. It counts as functional.
In series [28] the test system is Escherichia coli. The series is described as follows: Induction of morphological changes in Escherichia coli ATCC 25922 assessed as leakage in intracellular contents at 0.5 to 2 times MIC incubated for 90 mins by Helium ion microscopy. It counts as functional, organism-based.
The subject of series [29] is Staphylococcus aureus. Kind of series: Induction of morphological changes in Staphylococcus aureus ATCC 29213 incubated for 90 mins by Helium ion microscopy. It is filed as functional, organism-based.
The subject of series [30] is Lipid bilayer. Kind of series: Induction of membrane disruption in Gram-negative bacterial cell membrane mimic POPE:POPG(7:3) large unilamellar vesicle assessed as carboxyfluorescein leakage by fluorescence analysis.
Series [31] concerns HEK293. The series is described as follows: Cytotoxicity against human HEK293 cells assessed as decrease in live cells at 15.6 ug/ml incubated for 2 hrs by MTS assay. It counts as toxicity, cell-based. As to conditions: hek293, 2 h, dose 15.6 µg/ml.
Series [32] has as its system Escherichia coli. Kind of series: Induction of morphological changes in Escherichia coli ATCC 25922 at 0.5 times MIC incubated for 90 mins by Helium ion microscopy. It counts as functional, organism-based.
The test system of series [33] is Cell membrane. Kind of series: Induction of inner membrane damage in Staphylococcus aureus ATCC 29213 assessed disruption of membrane integrity at 0.5 to 256 ug/ml and measured after 90 mins by propidium iodide staining based flow cytometry. It is filed as subcellular. The conditions noted are these: dose 0.5-256 µg/ml.
Series [34] has as its system Escherichia coli. The series is described as follows: Induction of morphological changes in Escherichia coli ATCC 25922 assessed as membrane collapse at 0.5 to 2 times MIC incubated for 90 mins by Helium ion microscopy. It is filed as functional, organism-based.
Series [35] concerns HEK293. The series is described as follows: Cytotoxicity against human HEK293 cells assessed as increase in LDH release at 31.25 ug/ml incubated for 2 hrs by LDH assay. It counts as toxicity, cell-based. As to conditions: hek293, 2 h, dose 31.25 µg/ml.
Series [36] relates to Escherichia coli. Kind of series: Induction of morphological changes in Escherichia coli ATCC 25922 assessed as leakage in intracellular contents at 0.5 times MIC incubated for 90 mins by Helium ion microscopy. It is filed as functional, organism-based.
Where [37] appears, read: Salmonella enterica subsp. enterica serovar Typhimurium.

In brackets after ≈: the same amount, converted by molar mass. Activity calls are given as the source filed them. No cut-off for these calls is given here. Peptide text beside a SMILES is read from it.

As to `CC[C@H](C)[C@H](NC(=O)[C@H](CO)NC(=O)[C@H](CCCCN)NC(=O)[C@H](Cc1c[nH]c2ccccc12)NC(=O)[C@H](CC(C)C)NC(=O)[C@H](C)N)C(=O)N[C@@H](CC(C)C)C(=O)N[C@@H](CCCCN)C(=O)N[C@@H](CC(N)=O)C(=O)N[C@H](C(=O)NCC(=O)N[C@@H](CCCCN)C(=O)N[C@@H](C)C(=O)N[C@@H](C)C(=O)NCC(=O)N[C@@H](CCCCN)C(=O)N[C@@H](C)C(=O)N[C@H](C(=O)N[C@@H](CC(C)C)C(=O)O)C(C)C)C(C)C` (H-ALWKSILKNVGKAAGKAVL-OH), the Activity is 30% in series [1]; 40% in series [4]; “Toxic” in [7]; 30% in series [8]; 40% in series [14]; 40% in series [16]. For the same compound, the Activity in series [18] is 40%; in [25] it was “Toxic”. Moreover, the MIC in series [2] (BAA3051, 1.5 h) is 31.3 µg/mL (≈ 15.9 µM); in [5] (ATCC 29213, 1.5 h) it was 62.5 µg/mL (≈ 31.8 µM); in series [13] (ATCC 29212, 1.5 h), 250 µg/mL (≈ 127 µM); in series [22] (SL1344, 1.5 h), 250 µg/mL (≈ 127 µM); in series [24] (ATCC 25922, 1.5 h) it was 31.3 µg/mL (≈ 15.9 µM); in series [27] (ATCC 33591, 1.5 h), over 125 µg/mL. In addition, the outcome in series [3], in series [6], in [11], in series [12], in series [15] and in [20] was Active. For the same compound, the outcome in series [21] was Active. Moreover, the minimum bactericidal concentration (MBC) was 31.3 µg/mL (≈ 15.9 µM) in [9] (ATCC 25922, 1.5 h); over 125 µg/mL in series [10] (ATCC 29213, 1.5 h); 250 µg/mL (≈ 127 µM) in series [17] (SL1344, 1.5 h); over 250 µg/mL in series [19] (ATCC 33591, 1.5 h); 250 µg/mL (≈ 127 µM) in [23] (ATCC 29212, 1.5 h); 31.3 µg/mL (≈ 15.9 µM) in series [26] (BAA3051, 1.5 h).

For `CC[C@H](C)[C@H](NC(=O)[C@H](CCCCN)NC(=O)[C@@H](NC(=O)[C@H](Cc1ccccc1)NC(=O)[C@H](C)NC(=O)[C@H](CCCCN)NC(=O)CNC(=O)[C@H](Cc1ccccc1)NC(=O)[C@H](CCCCN)NC(=O)[C@H](CCCCN)NC(=O)[C@H](C)NC(=O)[C@H](CCCCN)NC(=O)[C@H](CCCCN)NC(=O)[C@H](CC(C)C)NC(=O)[C@H](Cc1ccccc1)NC(=O)[C@@H](N)CCCCN)C(C)C)C(=O)N[C@@H](CC(C)C)C(=O)O` (H-KFLKKAKKFGKAFVKIL-OH), the Activity in [1] was 30%; in series [4], 40%; in [8] it was 30%; in series [30], 20%; in [14] it was 40%; in [31], “Toxic”. The Activity in series [16] was 40%; in series [18], 40%; in series [35], “Toxic”. Further, the minimum inhibitory concentration (MIC) is 7.8 µg/mL (≈ 3.91 µM) in series [2] (BAA3051, 1.5 h); 15.6 µg/mL (≈ 7.82 µM) in [5] (ATCC 29213, 1.5 h); 31.3 µg/mL (≈ 15.7 µM) in [13] (ATCC 29212, 1.5 h); 7.8 µg/mL (≈ 3.91 µM) in [22] (SL1344, 1.5 h); 15.6 µg/mL (≈ 7.82 µM) in [24] (ATCC 25922, 1.5 h); over 125 µg/mL in [27] (ATCC 33591, 1.5 h). Besides, the outcome in [3], in series [28], in [29], in series [11], in [15] and in [32] was Active. The result in series [33], in series [20], in [21], in [34] and in series [36] was Active. Further, the minimal bactericidal concentration (MBC) in series [9] (ATCC 25922, 1.5 h) was 15.6 µg/mL (≈ 7.82 µM); in series [10] (ATCC 29213, 1.5 h), 31.3 µg/mL (≈ 15.7 µM); in series [17] (SL1344, 1.5 h) it was 7.8 µg/mL (≈ 3.91 µM); in series [19] (ATCC 33591, 1.5 h), over 125 µg/mL; in [23] (ATCC 29212, 1.5 h), 125 µg/mL (≈ 62.7 µM); in series [26] (BAA3051, 1.5 h), 7.8 µg/mL (≈ 3.91 µM).

GENTAMICIN: the MIC in [2] was 1.9 µg/mL; in series [5], 3.9 µg/mL; in [13] it was 3.9 µg/mL; in series [22] (setting [37]), 12.5 µg/mL; in series [24], 0.9 µg/mL; in [27], 7.8 µg/mL. The MBC in series [9] was 6.25 µg/mL; in series [10] it was 6.25 µg/mL; in series [17] (setting [37]), 12.5 µg/mL; in series [19], 62.5 µg/mL; in series [23], 31.3 µg/mL; in series [26], 1.9 µg/mL.
